What was measured:
[1] = biological target: T1, α1β2γ2 GABA receptors (α1β2γ2-CHO-TRex stable cell strain) (Homo sapiens, UniProt P14867+P47870); experiment: Whole-cell patch clamp, intrasynaptic functional activity (positive allosteric regulation of GABA-induced current); assay type: cell-based; conditions: patch clamp -60 mV, GABA at EC10-20, α1β2γ2-CHO-TRex cells
T1 construct: expressed in transfected cells
Method: (§1) The α4β3δ-HEK-FlpIn-TRex stable cell strain was cultured in DMEM+10% FBS complete culture medium, with the selective antibiotics being 10 μg/mL Blasticidin, 100 µg/mL Zeocin, 100 µg/mL Hygromycin, and 0.2 μg/mL Puromycin. The α1β2γ2-CHO-TRex stable cell strain was cultured in DMEM/F12+10% FBS complete culture medium, with the selective antibiotics being 10 μg/mL Blasticidin, 100 μg/mL Zeocin, 300 μg/mL Hygromycin, and […] Puromycin.
(§2) The day before the patch clamp experiment, cells were seeded onto 12 mm polylysine-coated coverslips and then cultured in 35 mm culture dishes, and tetracycline ([…]) was added to induce the expression of GABA receptors. The extracellular fluid had the following composition (in mM): 140 NaCl, 3 KCl, 1.5 MgCl2, 2 CaCl2, 10 HEPES, and 10 Glucose. After thorough mixing, NaOH was added to adjust the pH to 7.4, and sucrose was added to adjust the osmotic pressure to 300-320 mOsm. The fluid was stored at 4° C. The electrode internal solution had the following composition (in mM): 145 KCl, 1 MgCl2, 5 EGTA, 10 HEPES, and 5 MgATP. After thorough mixing, KOH was added to adjust the pH to 7.3, and sucrose was added to adjust the osmotic pressure to 290-300 mOsm. The solution was filtered through a […] before use.
(§3) Whole-cell patch clamp recording was mainly employed in this experiment. The membrane potential was clamped at −60 mV, and receptors were activated using GABA at an EC10-20 concentration ([…]). The test compounds were dissolved in 0.1% DMSO, and perfusion was performed for 30 s prior to GABA stimulation. Finally, the positive allosteric regulating effects of the test compounds on α1β2γ2 or α4β3δ were determined.
(§4) The experimental result for each concentration was expressed as a fold increase in the GABA-induced current caused by the compound. […] At least 5 concentrations are tested to obtain a complete EC50 curve and EC50 values. All experiments were repeated on no less than 3 cells, and data processing was completed using GraphPad prism software. The dose-response curves were fitted using the Hill equation, and the half-maximal activating concentration EC50 and Emax were finally obtained.

[2] = biological target: T2, α4β3δ GABA receptors (α4β3δ-HEK-FlpIn-TRex stable cell strain) (Homo sapiens, UniProt P28472+P48169); experiment: Whole-cell patch clamp, extrasynaptic functional activity (positive allosteric regulation of GABA-induced current); assay type: cell-based; conditions: patch clamp -60 mV, GABA at EC10-20, α4β3δ-HEK-FlpIn-TRex cells
T2 construct: expressed in transfected cells
T2 sequence (P48169 36-554): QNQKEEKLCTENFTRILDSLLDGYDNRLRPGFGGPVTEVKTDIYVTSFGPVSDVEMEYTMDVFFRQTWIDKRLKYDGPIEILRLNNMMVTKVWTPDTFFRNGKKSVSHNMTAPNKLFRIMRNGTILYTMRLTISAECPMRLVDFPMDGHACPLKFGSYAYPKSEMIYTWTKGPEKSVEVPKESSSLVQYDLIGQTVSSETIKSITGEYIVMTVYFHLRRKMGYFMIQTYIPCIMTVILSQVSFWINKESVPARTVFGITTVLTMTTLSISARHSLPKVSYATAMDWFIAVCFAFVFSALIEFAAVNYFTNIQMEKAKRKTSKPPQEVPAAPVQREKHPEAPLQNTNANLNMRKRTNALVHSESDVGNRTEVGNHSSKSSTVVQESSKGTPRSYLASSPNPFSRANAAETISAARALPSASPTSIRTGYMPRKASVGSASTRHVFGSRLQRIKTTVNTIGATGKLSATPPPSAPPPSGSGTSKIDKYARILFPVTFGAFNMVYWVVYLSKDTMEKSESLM
T2 sequence (P28472 26-473): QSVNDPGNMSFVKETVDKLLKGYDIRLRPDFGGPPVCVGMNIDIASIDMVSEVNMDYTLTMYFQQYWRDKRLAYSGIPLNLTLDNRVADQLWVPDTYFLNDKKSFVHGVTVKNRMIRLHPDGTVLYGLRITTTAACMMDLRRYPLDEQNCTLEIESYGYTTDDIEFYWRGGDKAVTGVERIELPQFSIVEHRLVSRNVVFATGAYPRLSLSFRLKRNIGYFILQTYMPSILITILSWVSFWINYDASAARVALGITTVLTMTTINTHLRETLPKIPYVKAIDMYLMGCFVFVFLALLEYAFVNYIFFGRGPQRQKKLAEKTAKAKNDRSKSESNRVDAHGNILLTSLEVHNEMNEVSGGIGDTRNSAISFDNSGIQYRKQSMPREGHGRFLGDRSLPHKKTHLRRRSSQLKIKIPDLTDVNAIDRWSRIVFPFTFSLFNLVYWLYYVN
T2 sequence (O14764 25-452 partner): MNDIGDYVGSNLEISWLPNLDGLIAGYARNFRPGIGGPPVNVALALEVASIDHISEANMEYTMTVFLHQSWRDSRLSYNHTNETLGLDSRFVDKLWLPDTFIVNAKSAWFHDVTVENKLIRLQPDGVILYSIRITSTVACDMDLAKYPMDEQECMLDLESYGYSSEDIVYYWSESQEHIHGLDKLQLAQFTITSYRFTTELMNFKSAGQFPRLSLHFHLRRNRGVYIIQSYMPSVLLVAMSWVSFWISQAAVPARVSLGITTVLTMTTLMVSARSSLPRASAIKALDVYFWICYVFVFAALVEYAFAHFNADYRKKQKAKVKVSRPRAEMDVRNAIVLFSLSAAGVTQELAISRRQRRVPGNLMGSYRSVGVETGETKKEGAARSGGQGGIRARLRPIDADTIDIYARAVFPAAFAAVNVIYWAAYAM
Method: as §1, §2, §3, §4

[3] = In vitro liver microsomal stability assay, rat; assay type: in vitro ADME; conditions: for CLint scaled at 1 µM / half-life at 1 µM / microsomal CLint at 1 µM / T1/2: Rat liver microsomes; for Remaining amount % at 60 min: Rat liver microsomes 0.5 mg/mL, NADPH; for microsomal CLint at 1 µM: read-out: CLint(mic)
Method: (§5) 1) Preparation of working solutions of test samples: The test samples were diluted with acetonitrile to 100 M.
(§6) 2) Preparation of a working solution of liver microsomes: liver microsomes were diluted with 100 mM phosphate-buffered saline to 0.56 mg/mL.
(§7) 3) Preparation of a working solution of reduced nicotinamide adenine dinucleotide (NADPH): A proper amount of NADPH was weighed out and diluted with phosphate-buffered saline to 20 mM, and an equal volume of a 60 mM MgCl2 solution was added.
(§8) 4) Preparation of a stop solution: Tolbutamide was diluted with acetonitrile to 20 ng/mL, serving as a stop solution containing an internal standard.
(§9) 1) Incubation anti-adsorption EP tubes were prepared and labeled with species, test/control sample, time points (0, 5, 10, 20, 30, 60 min, Blank60, and NCF60), etc.
(§10) 2) 2 L of test or control sample working solution, diluted with acetonitrile to 100 M, and 178 L of liver microsome working solution were added to each tube. For the Blank60 tube, 2 L of acetonitrile was added instead of a test sample. The tubes were pre-incubated in a 37° C. water bath for about 10 min, with each sample tested in triplicate.
(§11) 3) After the pre-incubation was complete, 20 L of NADPH working solution was added to each tube except for the 0 min and NCF60 tubes to start reactions, and 20 L of phosphate-buffered saline (containing 30 mM MgCl2) was added to the NCF60 tube. In the incubation system, the final concentrations of the test and control samples were 1 M, the final concentration of liver microsomes was 0.5 mg/mL, the final concentration of NADPH was 1 mM, and the final concentration of MgCl2 was 3 mM.
(§12) 4) For the 0 min sample, 600 L of stop solution was added before adding the NADPH working solution. After each sample was incubated for its respective time, 600 L of stop solution was added to stop the reaction.
(§13) 5) After the reaction was stopped, each sample was vortexed for 30 s and then centrifuged at 13,500 rpm for 10 min. 100 L of the supernatant was transferred to an EP tube, and 100 L Milli-Q water was added. The mixture was well mixed by vortexing and analyzed by LC-MS/MS.
(§14) 6) Testosterone and dextromethorphan were used as positive control samples under the same conditions to assess the stability and reliability of the system.
(§15) Parameters of the test samples, including their half-lives, intrinsic clearance rates in liver microsomes, and hepatic intrinsic clearance rates, were calculated based on the percentage of test sample remaining.

[4] = In vitro liver microsomal stability assay, human; assay type: in vitro ADME; conditions: for CLint scaled at 1 µM / half-life at 1 µM / microsomal CLint at 1 µM / T1/2: Human liver microsomes; for Remaining amount % at 60 min: Human liver microsomes 0.5 mg/mL, NADPH; for microsomal CLint at 1 µM: read-out: CLint(mic)
Method: as §5, §6, §7, §8, §9, §10, §11, §12, §13, §14, §15

T1 sequence (P14867 28-456): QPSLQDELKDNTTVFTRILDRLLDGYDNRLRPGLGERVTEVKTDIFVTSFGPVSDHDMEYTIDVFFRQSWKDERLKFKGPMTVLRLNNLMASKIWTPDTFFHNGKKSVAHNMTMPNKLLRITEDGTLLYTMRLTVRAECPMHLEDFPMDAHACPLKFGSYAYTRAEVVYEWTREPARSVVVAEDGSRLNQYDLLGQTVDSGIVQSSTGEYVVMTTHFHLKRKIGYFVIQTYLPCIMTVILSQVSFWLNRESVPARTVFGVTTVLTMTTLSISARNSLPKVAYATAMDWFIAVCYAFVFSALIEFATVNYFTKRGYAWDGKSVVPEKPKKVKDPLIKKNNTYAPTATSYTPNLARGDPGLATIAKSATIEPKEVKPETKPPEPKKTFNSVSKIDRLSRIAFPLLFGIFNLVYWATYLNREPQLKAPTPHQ
T1 sequence (P47870 25-512 limits assumed): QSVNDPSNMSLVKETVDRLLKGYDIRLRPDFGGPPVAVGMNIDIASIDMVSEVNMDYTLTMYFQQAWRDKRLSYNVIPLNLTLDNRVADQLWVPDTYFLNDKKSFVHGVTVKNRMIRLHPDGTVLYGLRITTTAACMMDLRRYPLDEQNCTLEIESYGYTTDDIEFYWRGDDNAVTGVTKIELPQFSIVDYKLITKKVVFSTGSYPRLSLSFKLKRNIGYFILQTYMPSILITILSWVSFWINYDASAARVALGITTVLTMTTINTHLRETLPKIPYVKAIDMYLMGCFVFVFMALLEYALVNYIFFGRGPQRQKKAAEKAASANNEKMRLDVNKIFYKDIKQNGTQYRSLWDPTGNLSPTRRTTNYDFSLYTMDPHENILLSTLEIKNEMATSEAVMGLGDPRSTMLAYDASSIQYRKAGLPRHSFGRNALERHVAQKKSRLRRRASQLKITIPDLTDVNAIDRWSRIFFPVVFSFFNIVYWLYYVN
T1 sequence (P18507 40-475 partner): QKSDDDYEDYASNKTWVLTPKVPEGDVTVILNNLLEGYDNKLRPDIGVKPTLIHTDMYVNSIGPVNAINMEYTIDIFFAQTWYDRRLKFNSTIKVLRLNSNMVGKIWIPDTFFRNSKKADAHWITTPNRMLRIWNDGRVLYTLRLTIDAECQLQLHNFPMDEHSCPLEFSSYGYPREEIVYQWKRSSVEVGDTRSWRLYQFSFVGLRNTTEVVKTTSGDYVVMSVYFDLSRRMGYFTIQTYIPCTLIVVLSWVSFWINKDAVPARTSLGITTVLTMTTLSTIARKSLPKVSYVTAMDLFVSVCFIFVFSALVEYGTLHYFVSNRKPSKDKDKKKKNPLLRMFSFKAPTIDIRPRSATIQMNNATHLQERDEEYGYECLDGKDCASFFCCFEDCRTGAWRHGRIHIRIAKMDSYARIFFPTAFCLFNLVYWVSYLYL

Row | SMILES | EC50 [1] [nM] | Emax [1] [%] | EC50 [2] [nM] | Emax [2] [%] | CLint scaled at 1 µM [3] [mL/min/kg] | half-life at 1 µM [3] [min] | Remaining amount % at 60 min [3] [%] | microsomal CLint at 1 µM [3] [µL/min/mg] | CLint scaled at 1 µM [4] [mL/min/kg] | half-life at 1 µM [4] [min] | Remaining amount % at 60 min [4] [%] | microsomal CLint at 1 µM [4] [µL/min/mg] | T1/2 [3] [min] | T1/2 [4] [min]
1 | COc1cccc(-n2ncn(CC(=O)[C@H]3CC[C@H]4[C@@H]5CC[C@@H]6C[C@](C)(O)CC[C@@H]6[C@H]5CC[C@]34C)c2=O)c1 [Compound 5] | 26 | 410 | 21 | 570 | 176 | 14.1 | 14.19 | 98 | 24 | 52.5 | 43.53 | 26 |  | 
2 | C[C@@]1(O)CC[C@H]2[C@H](CC[C@@H]3[C@@H]2CC[C@]2(C)[C@@H](C(=O)Cn4cnn(CCOC(F)(F)F)c4=O)CC[C@@H]32)C1 [Compound 43] |  | 576 |  | 889 | 108 |  | 15.74 | 60 | 41 |  | 25.97 | 45 | 23 | 30.7
3 | C[C@@]1(O)CC[C@H]2[C@H](CC[C@@H]3[C@@H]2CC[C@]2(C)[C@@H](C(=O)Cn4cnn(-c5cccnc5)c4=O)CC[C@@H]32)C1 [Compound 2] |  | 773 |  | 391 | 187 |  | 11.25 | 104 | 52 |  | 18.57 | 57 | 11.3 | 24.1
4 | C[C@@]1(O)CC[C@H]2[C@H](CC[C@@H]3[C@@H]2CC[C@]2(C)[C@@H](C(=O)Cn4cnn(-c5cccc(C(N)=O)c5)c4=O)CC[C@@H]32)C1 [Compound 19] |  | 764 |  | 386 | 141 |  | 9.5 | 79 | 26 |  | 42.2 | 29 | 17.6 | 28.5
5 | C[C@@]1(O)CC[C@H]2[C@H](CC[C@@H]3[C@@H]2CC[C@]2(C)[C@@H](C(=O)Cn4cnn(-c5ccccc5)c4=O)CC[C@@H]32)C1 [Compound 3] | 90 | 430 | 29 | 490 | 94 | 26.5 | 51.77 | 52 | 11 | 118 | 70.25 | 12 |  | 
6 | C[C@@]1(O)CC[C@H]2[C@H](CC[C@@H]3[C@@H]2CC[C@]2(C)[C@@H](C(=O)Cn4cnn(-c5nccs5)c4=O)CC[C@@H]32)C1 [Compound 32] | 330 | 763 | 126 | 633 | 152 | 15.4 | 7.7 | 85 | 19 | 64.8 | 66.8 | 21 |  | 
7 | CC(C)(C)n1ncn(CC(=O)[C@H]2CC[C@H]3[C@@H]4CC[C@@H]5C[C@](C)(O)CC[C@@H]5[C@H]4CC[C@]23C)c1=O [Compound 45] | 121 | 806 | 113 | 749 | 281 | 8.9 | 7.24 | 156 | 22 | 56.3 | 48.81 | 25 |  | 
8 | C[C@@]1(O)CC[C@H]2[C@H](CC[C@@H]3[C@@H]2CC[C@]2(C)[C@@H](C(=O)Cn4cnn(-c5ccnc(F)c5)c4=O)CC[C@@H]32)C1 [Compound 21] | 153 |  | 116 |  | 69 | 36.3 | 31.9 | 38 | 23 | 53.3 | 47.9 | 26 |  | 
9 | C[C@@]1(O)CC[C@H]2[C@H](CC[C@@H]3[C@@H]2CC[C@]2(C)[C@@H](C(=O)Cn4cnn(-c5ccc(F)cc5F)c4=O)CC[C@@H]32)C1 [Compound 25] | 784 | 692 | 89 | 542 | 104 | 24.1 | 16.2 | 58 | 25 | 49.5 | 42 | 28 |  | 
10 | C[C@@]1(O)CC[C@H]2[C@H](CC[C@@H]3[C@@H]2CC[C@]2(C)[C@@H](C(=O)Cn4cnn(-c5ccccc5F)c4=O)CC[C@@H]32)C1 [Compound 18] | 171 | 710 | 107 | 541 | 278 | 9 | 9.7 | 154 | 30 | 41.7 | 38.3 | 33 |  | 
11 | C[C@@]1(O)CC[C@H]2[C@H](CC[C@@H]3[C@@H]2CC[C@]2(C)[C@@H](C(=O)Cn4cnn(-c5ccnc(OCC(F)(F)F)c5)c4=O)CC[C@@H]32)C1 [Compound 39] |  | 675 |  | 967 | < 13.5 | > 186 | 90.6 | < 7.5 | 8 |  | 76.2 | 9 |  | 154
12 | C[C@@]1(O)CC[C@H]2[C@H](CC[C@@H]3[C@@H]2CC[C@]2(C)[C@@H](C(=O)Cn4cnn(-c5cccc(F)n5)c4=O)CC[C@@H]32)C1 [Compound 20] | 368 | 724 | 360 | 966 | 320 | 7.8 | 8.40 | 178 | 28 | 70.7 | 52.3 | 20 |  | 

Reference: US20250368678A1, “19-NOR-C3,3-DISUBSTITUTED C21-AZACYCLO-S[…] AND METHOD FOR USING SAME” (SHANDONG LUYE PHARMACEUTICAL CO., LTD., priority 2022, published 2025)
